Like-named read-outs stand apart in the source and are kept apart here.
Tests used:
human CRTH2 = molecular target: T1, human CRTH2 (Homo sapiens, UniProt Q9Y5Y4); test: Measurement of Ca2+ mobilization in the human CRTH2-transfected L1.2 cell line; type: cell-based; conditions: PGD2-induced Ca2+ mobilization, human CRTH2-transfected L1.2 cells; compounds as yielded by solid phase synthesis, purity about 40 to 90%; read-out: Activity class (IC50)
T1 construct: expressed in transfected cells; host or cells: L1.2 cells (pEAK expression vector, puromycin selection)
T1 sequence (Q9Y5Y4 1-395): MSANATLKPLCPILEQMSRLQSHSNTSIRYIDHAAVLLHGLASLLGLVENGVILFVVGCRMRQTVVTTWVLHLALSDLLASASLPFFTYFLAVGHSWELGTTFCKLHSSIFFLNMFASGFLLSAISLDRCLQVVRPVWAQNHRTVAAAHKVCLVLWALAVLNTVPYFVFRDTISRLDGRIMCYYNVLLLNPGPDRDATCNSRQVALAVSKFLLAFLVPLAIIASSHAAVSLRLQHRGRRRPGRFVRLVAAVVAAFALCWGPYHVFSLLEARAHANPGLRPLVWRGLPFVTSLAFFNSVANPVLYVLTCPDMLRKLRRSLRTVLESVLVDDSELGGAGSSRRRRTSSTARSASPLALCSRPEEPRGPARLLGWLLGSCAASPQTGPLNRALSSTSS
Source text: [Preparation of Human CRTH2-Transfected L1. 2 Cell Line]
Human CRTH2 cDNA was amplified from human eosinophil cDNA with gene specific primers containing restriction sites for cloning into pEAK vector (Edge Bio Systems). The human CRTH2 cDNA was cloned into the mammalian expression vector pEAK. This expression plasmid ([…]) was transfected into L1. 2 cells, at a cell density of 1×10^7 cells/[…], by using electroporation apparatus (Gene Pulser II, BioRad) at 250V/[…]. One day after the transfection, puromycin (1 ug/mi, Sigma) was added into the cell culture plates. Two weeks after the transfection, grown cells were picked up for further growth.
[Measurement of Ca^2+ Mobilization in the Human CRTH2-Transfected L1. 2 Cell Line]
Ca^2+ loading buffer was prepared by mixing […] of Fluo-3AM (2 mM in DMSO, final 1 uM, Molecular Probes) and 10 µl of pluronic F-127 (Molecular Probes) and diluting the resulting mixture in 10 ml of Ca^2+ assay buffer (20 mM HEPES pH 7.6, 0.1% BSA, 1 mM probenecid, Hanks' solution). The CRTH2 transfected cells which were prepared in Example 1 were washed with PBS, resuspended in Ca2+ loading buffer at […] cells/ml, and incubated for 60 min at room temperature. After incubation, cells were washed and resuspended in Ca^2+ assay buffer, then dispensed into transparent-bottom 96-well plates (# 3631, Costar) at 2×10^5 cells/well. Cells were incubated with various concentrations of test compound for 5 minutes at room temperature. The emitted […] fluorescence was measured on FDSS6000, a Ca^2+-measurement apparatus (Hamamatsu Photonics, Hamamatsu, Japan).
The data corresponds to the compounds as yielded by solid phase synthesis and thus to levels of purity of about 40 to 90%. For practical reasons, the compounds are grouped in four classes of activity as follows: IC50=A (< or =) 10 nM<B (< or =) 100 nM<C (< or =) 500 nM<D. The compounds of the present invention also show excellent selectivity, and potent activity in Assays 2,3 and 4 described above.

CRTH2 (GPR44) = molecular target: T2, CRTH2 (GPR44) (Mus musculus, UniProt Q9Z2J6); conditions: topical to skin, cited from earlier work
T2 construct: host or cells: skin of wild-type mice, in vivo
T2 sequence (Q9Z2J6 1-382): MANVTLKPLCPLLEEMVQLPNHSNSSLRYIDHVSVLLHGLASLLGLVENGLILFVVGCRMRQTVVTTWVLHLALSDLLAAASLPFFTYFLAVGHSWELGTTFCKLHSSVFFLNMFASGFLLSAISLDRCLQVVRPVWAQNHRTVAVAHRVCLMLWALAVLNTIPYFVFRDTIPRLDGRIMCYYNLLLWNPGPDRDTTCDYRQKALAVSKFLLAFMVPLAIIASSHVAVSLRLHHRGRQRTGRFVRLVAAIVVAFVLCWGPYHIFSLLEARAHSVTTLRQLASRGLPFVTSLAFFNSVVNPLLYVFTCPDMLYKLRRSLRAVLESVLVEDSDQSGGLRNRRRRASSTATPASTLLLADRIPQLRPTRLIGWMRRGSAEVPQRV

[1] = tested on: explanted human hair follicles; conditions: cited from earlier work

Structure (SMILES)	IC50 (human CRTH2) [nM]	further results
O=C(O)Cc1c(Cl)nc(Cc2ccc(NC(=O)c3ccc4ccccc4c3)cc2)nc1Cl [Example 20]	< 10	
CN(C)c1nc(Cc2ccc(NC(=O)c3ccc4ccccc4c3)cc2)nc(Cl)c1Cc1nnn[nH]1 [Example 21]	< 10	
CN(C)c1nc(Cc2ccc(NC(=O)c3ccc4ccccc4c3)cc2)nc(Cl)c1CC(N)=O [Example 22]	10 to 100	
CCCCC[C@H](O)/C=C/[C@H]1C(=O)C[C@H](O)[C@@H]1C/C=C\CCCC(=O)O [PGD2, prostaglandin D2]		hair growth (CRTH2 (GPR44); CRTH2 (GPR44) knockout mice): not; hair growth (CRTH2 (GPR44); wild-type mice): inhibited hair growth; hair growth [1]: inhibited hair growth

Now from value to compound, other results behind:

IC50 (human CRTH2) [nM]	Structure (SMILES)	further results
< 10	CN(C)c1nc(Cc2ccc(NC(=O)c3ccc4ccccc4c3)cc2)nc(Cl)c1CC(=O)O [Example 1]	
< 10	CN(C)c1nc(Cc2ccc(NC(=O)c3ccc4ccccc4c3)cc2)ncc1CC(=O)O [Example 10]	
< 10	CN(C)c1nc(Cc2ccc(NC(=O)c3ccc(C(F)(F)F)cc3)cc2)nc(N(C)C)c1CC(=O)O [Example 14]	

Source: patent US20140148470A1, “PYRIMIDINE COMPOUNDS FOR TREATING HAIRLOSS” (Boehringer Ingelheim International GmbH, priority 2012, published 2014)
